Experimental data taken from patent US20130280204A1 (priority 2007, published 2013).

Test system: Wuhan E119V
Type: cell-based, influenza A virus H3N2
Conditions: read-out: IC50 (nM zanamivir) A/Wuhan/359/95 (second line)

Substance: 3-Acetamido-2-(1-(((4-(aminomethyl)phenyl)carbamoyl)oxy)-2,3-dihydroxypropyl)-4-guanidino-3,4-dihydro-2H-pyran-6-carboxylic acid [compound 4]
- IC50: 51 ± 5 nM
